For one data set, the target named is T1, BAG3 full-length (Homo sapiens, UniProt O95817).
T1 construct: both the full-length BAG3 protein and its BAG domain; purchased Novus Biologicals (Littleton, CO, USA)
Put plainly: SPR assay on BAG3 full-length protein. To be noted: Biacore T200, 0 to 100 µM, 25 °C, 1:1 interaction model, n.b. = no binding; for Kd: read-out: BAG3 FULL KD (µM) ± SD. The method, then:
(§1) In this study, we employed SPR experiments to evaluate the interactions between synthesized compounds (1–14) and both the full-length BAG3 protein and its BAG domain. Only the compounds that successfully bound to the full-length BAG3 protein were tested for their interaction with the BAG domain. Protein immobilization was achieved using the amide coupling method, and the compounds were tested at ten different concentrations, ranging from 0 to 100 µM. A known binder of BAG3-BD, LK4 ((Z)-ethyl 2-(5-(3,4-dihydroxybenzylidene)-2,4-dioxothiazolidin-3yl)acetate), was used as a positive control. […] Compound 14 also bound the target but with slightly higher KD values, still within the micromolar range. The three identified compounds were further investigated to understand whether this binding induced an effect on BAG3 protein functions. The KD values reported in Table 1 for the known inhibitor LK4 differ from those in previous studies due to the use of a newer-generation instrument for the SPR experiments. The earlier experiments utilized the Biacore 3000, whereas the current study employed the Biacore T200. While ligand binding was confirmed in both sets of experiments, the slightly different KD values are attributed to the enhanced sensitivity of the Biacore T200.
(§2) Recombinant human BAG3 protein (Bcl2-associated athanogene 3) was sourced from Novus Biologicals (Littleton, CO, USA), while the BAG3 domain (BAG3-BD) was procured from ARETA International S.r.l. (Gerenzano, Italy). We utilized (Z)-ethyl 2-(5-(3,4-dihydroxybenzylidene)-2,4-dioxothiazolidin-3-yl)acetate (LK4), a known BAG3 inhibitor previously identified by our group. Surface Plasmon Resonance (SPR) spectroscopy was employed to assess the affinity of synthesized molecules for BAG3 and BAG-BD using a Biacore T200 optical biosensor equipped with CM5 sensor chips (Cytiva, Marlborough, MA, USA). BAG3 and BAG-BD were immobilized on the CM5 sensor chip using standard amine-coupling protocols. BAG3 protein (0.067 μg/μL in 10 mM CH3COONa, pH 4.5) was immobilized at a flow rate of 10 μL/min, resulting in a density of 14 kRU. The BAG3 domain (0.38 μg/μL in 10 mM CH3COONa, pH 4.5) was immobilized under similar conditions, achieving a density of 4 kRU. For the experiments, BAG3 and BAG-BD surfaces, along with an unmodified reference surface, were prepared for simultaneous analyses.
Compounds 1–14 and LK4 were dissolved to 10 mM in 100% DMSO and then diluted 1:20 (v/v) in PBS-P buffer (0.2 M phosphate buffer, 27 mM KCl, 1.37 M NaCl, 0.5% surfactant P20) to achieve a final DMSO concentration of 5.0%. These compounds were injected in a concentration series (1:2 dilution, 10 different concentrations) ranging from 0 to 100 μM, prepared in 96-well plates. SPR experiments were conducted at 25 °C with a flow rate of 20 μL/min, featuring 90 s of association and 400 s of dissociation monitoring. Changes in mass, reflected as resonance units (RU), were recorded to determine binding responses. KD values were calculated using Biaevaluation software 3.2 by globally fitting the double-referenced association and dissociation data to a 1:1 interaction model. See Supplementary Materials for all the sensorgrams (Figures S43–S50).

For the next data set, the target named is T2, BAG3-BD (Homo sapiens, UniProt O95817).
T2 construct: the BAG3 domain (BAG3-BD) was procured from ARETA International S.r.l; purchased ARETA International S.r.l; (Gerenzano, Italy)
T2 sequence (O95817 421-498 limits assumed): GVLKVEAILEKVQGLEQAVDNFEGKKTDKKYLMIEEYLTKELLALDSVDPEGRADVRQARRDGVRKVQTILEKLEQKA
The experiment in a line: SPR assay on BAG domain of BAG3 (BAG3-BD). The format is binding. To be noted: Biacore T200, 0 to 100 µM, 25 °C, 1:1 interaction model, read-out: BAG DOMAIN KD (µM) ± SD. On the procedure: as §1
as §2, with “For the experiments, BAG3 and BAG-BD surfaces, along with an unmodified reference surface, were prepared for simultaneous analyses.” left out
Compounds 1–14 and LK4 were dissolved to 10 mM in 100% DMSO and then diluted 1:20 (v/v) in PBS-P buffer (0.2 M phosphate buffer, 27 mM KCl, 1.37 M NaCl, 0.5% surfactant P20) to achieve a final DMSO concentration of 5.0%. […] Changes in mass, reflected as resonance units (RU), were recorded to determine binding responses. KD values were calculated using Biaevaluation software 3.2 by globally fitting the double-referenced association and dissociation data to a 1:1 interaction model. […]

Another data set deals with HeLa cells. The experiment in a line: MTT cell viability assay on HeLa cells. Conditions: 72 h. It counts as cell-based. On the procedure:
Elevated expression levels of BAG3 are strongly associated with signaling pathways in various types of malignant cells; consequently, reducing the activity of this co-chaperone inhibits cell proliferation, triggers apoptosis, and induces cell cycle arrest. To assess the activity of compounds 10, 12, and 14, cytotoxicity assays were performed on HeLa cells, which were chosen for their tendency to overexpress BAG3 proteins. MTT assays were conducted by exposing HeLa cells to different concentrations of the compounds (25, 50, and 100 µM) for 72 h. Additionally, 10% DMSO was used as a positive control, while 0.1% DMSO served as a negative control. […] The next step involved the assessment of the cytotoxicity of the most promising candidate, 10, on healthy cells to determine its safety profile. To achieve this, MTT assays were conducted on HaCat cells over 72 h.
Human cervical carcinoma cell lines (HeLa, kindly donated by Prof. Ornella Moltedo, Department of Pharmacy, University of Salerno) and immortalized human keratinocytes (HaCaT) were cultured in a DMEM/high glucose medium. This medium was supplemented with 10% FBS (v/v), 2 mM/L glutamine, 100 U/mL penicillin, and […] streptomycin. The cells were maintained at 37 °C in a humidified atmosphere with 5% CO2. To ensure logarithmic growth, the cells were sub-cultured every 2 days.
Cell viability was assessed by measuring mitochondrial metabolic activity using a colorimetric assay, which involves the reduction of 3-[4,5-dimethylthiazol-2,5-diphenyl-2H-tetrazolium bromide (MTT) to purple formazan. Stock solutions of compounds 10, 12, and 14 (50 mM in DMSO) were stored at −20 °C in the dark and diluted just before being added to the sterile culture medium. Briefly, HeLa cells (3.5 × 10^3 cells/well) were seeded in triplicate in 96-well plates, and after 24 h, to allow for attachment, the cells were treated with various concentrations of the tested compounds (25, 50 and 100 μM), 0.1% (v/v) DMSO as a negative control, and 10% (v/v) DMSO as a positive control for 72 h. Following treatment, 20 μL of MTT (5 mg/mL in PBS) was added to each well, and the cells were incubated for an additional 3 h at 37 °C. The formazan crystals formed were then dissolved in 100 μL of a buffer containing 50% (v/v) N, N-dimethylformamide and 20% SDS (pH 4.5). Absorbance was measured at 570 nm using a Multiskan™ GO Microplate Spectrophotometer (Thermo Fisher Scientific, Waltham, MA, USA,). […] The IC50 values, representing the concentration causing 50% inhibition of cell survival, were calculated and compared to control cells treated with DMSO using GraphPad Prism 8.0 software through nonlinear regression of dose–response inhibition. Only for compound 10 was the IC50 also assessed on HaCaT cells (5.0 × 10^3 cells/well) after 72 h of treatment.

T1 sequence (O95817 whole entry, the tested form may be a part): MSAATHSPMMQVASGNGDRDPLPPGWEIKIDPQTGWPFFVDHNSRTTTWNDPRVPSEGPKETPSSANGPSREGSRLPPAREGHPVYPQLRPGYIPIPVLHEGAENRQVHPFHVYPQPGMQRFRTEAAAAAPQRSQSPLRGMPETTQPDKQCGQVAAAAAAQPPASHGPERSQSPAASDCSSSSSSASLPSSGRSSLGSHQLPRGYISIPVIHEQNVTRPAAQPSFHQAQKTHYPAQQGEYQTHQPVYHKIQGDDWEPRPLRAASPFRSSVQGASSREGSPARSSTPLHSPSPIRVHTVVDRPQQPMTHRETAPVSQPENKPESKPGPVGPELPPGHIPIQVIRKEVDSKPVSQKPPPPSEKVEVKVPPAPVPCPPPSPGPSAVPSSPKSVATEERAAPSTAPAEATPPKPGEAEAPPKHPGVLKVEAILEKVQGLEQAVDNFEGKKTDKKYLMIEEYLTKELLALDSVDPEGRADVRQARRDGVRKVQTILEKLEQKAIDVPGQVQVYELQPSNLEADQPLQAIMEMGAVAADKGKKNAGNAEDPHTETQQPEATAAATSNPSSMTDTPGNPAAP

Regarding `CCOC(=O)CN1C(=O)S/C(=C\c2ccc(O)c(O)c2)C1=O` [LK4, (Z)-ethyl 2-(5-(3,4-dihydroxybenzylidene)-2,4-dioxothiazolidin-3yl)acetate, reference compound], the equilibrium dissociation constant (Kd) on BAG3 full-length was determined as 19.9 ± 6.58 µM; at BAG3-BD it was 0.18 ± 0.02 µM.

For `Brc1ccc2nc(-c3ccccc3)c(NC3CCCCC3)n2c1` [Compound 5, 6-bromo-N-cyclohexyl-2-phenylimidazo[1,2-a]pyridin-3-amine], the “BAG3 FULL KD (µM) ± SD” value at BAG3 full-length is “n.b”.

On to `CCCCNc1c(-c2ccccc2)nc2ccccn12` [Compound 3, N-butyl-2-phenylimidazo[1,2-a]pyridin-3-amine], for which, on BAG3 full-length, the “BAG3 FULL KD (µM) ± SD” value is listed as “n.b”.

In the case of `CCc1ccc(-c2nc3cc(Br)ccn3c2NC(C)C)cc1` [Compound 7, 7-bromo-2-(4-ethylphenyl)-N-isopropylimidazo[1,2-a]pyridin-3-amine], at BAG3 full-length, the “BAG3 FULL KD (µM) ± SD” value is on record as “n.b”.

Take `CCc1nc2ccccn2c1NC1CCCCC1` [Compound 2, N-cyclohexyl-2-ethylimidazo[1,2-a]pyridin-3-amine]: the “BAG3 FULL KD (µM) ± SD” value at BAG3 full-length is given as “n.b”.

On to `Brc1ccn2c(Nc3ccc4ccccc4c3)c(-c3ccccc3Br)nc2c1` [Compound 8, 7-bromo-2-(2-bromophenyl)-N-(naphthalen-2-yl)imidazo[1,2-a]pyridin-3-amine], for which the “BAG3 FULL KD (µM) ± SD” value on BAG3 full-length was “n.b”.

On to `CCc1ccc(-c2nc3cc(Br)ccn3c2Nc2ccc3ccccc3c2)cc1` [Compound 9, 7-bromo-2-(4-ethylphenyl)-N-(naphthalen-2-yl)imidazo[1,2-a]pyridin-3-amine], for which, on BAG3 full-length, the “BAG3 FULL KD (µM) ± SD” value is given as “n.b”.

Take `CCc1nc2ccc(Br)cn2c1NC1CCCCC1` [Compound 6, 6-bromo-N-cyclohexyl-2-ethylimidazo[1,2-a]pyridin-3-amine]: the “BAG3 FULL KD (µM) ± SD” value on BAG3 full-length was “n.b”.

`c1ccc(-c2nc3ccccn3c2NC2CCCCC2)cc1` [Compound 1, N-cyclohexyl-2-phenylimidazo[1,2-a]pyridin-3-amine]: on BAG3 full-length, the “BAG3 FULL KD (µM) ± SD” value is reported as “n.b. ^a”.

In the case of `Clc1ccc2nc(-c3ccccc3Br)c(Nc3ccc4ccccc4c3)n2c1` [Compound 12, 2-(2-bromophenyl)-6-chloro-N-(naphthalen-2-yl)imidazo[1,2-a]pyridin-3-amine], the Kd stood at 20.7 ± 0.42 µM on BAG3 full-length and 14.7 ± 2.69 µM on BAG3-BD. The molecule also yielded a mortality at 25 µM in the data set with HeLa cells (Homo sapiens, 25 µM) of 40%. The same molecule had a mortality at 100 µM in the data set on HeLa cells (Homo sapiens) of 60%. This molecule also gave an IC50 in the data set on HeLa cells (Homo sapiens, seven concentrations (1 to 100 µM)) of 38.9 ± 3.49 µM.

On to `COc1ccc(Nc2c(-c3cc(OC)ccc3F)nc3cc(C)ccn23)cc1` [Compound 13, 2-(2-fluoro-5-methoxyphenyl)-N-(4-methoxyphenyl)-7-methylimidazo[1,2-a]pyridin-3-amine], for which, on BAG3 full-length, the “BAG3 FULL KD (µM) ± SD” value is “n.b”.

Regarding `CCCCNc1c(CC)nc2ccccn12` [Compound 4, N-butyl-2-ethylimidazo[1,2-a]pyridin-3-amine], the “BAG3 FULL KD (µM) ± SD” value at BAG3 full-length is reported as “n.b”.

As to `COc1ccc(F)c(-c2nc3cc(C)ccn3c2NCc2ccccc2)c1` [Compound 14, N-benzyl-2-(2-fluoro-5-methoxyphenyl)-7-methylimidazo[1,2-a]pyridin-3-amine], the Kd at BAG3 full-length came out at 76.2 ± 5.44 µM; at BAG3-BD, 16.9 ± 5.87 µM. In the data set with HeLa cells (25 µM), the mortality entry is recorded as “lost its effect”. For the same molecule, the mortality at 100 µM in the data set with HeLa cells (Homo sapiens) amounted to 50%.

As to `CCc1ccc(-c2nc3ccc(Cl)cn3c2NC(C)C)cc1` [Compound 11, 6-chloro-2-(4-ethylphenyl)-N-isopropylimidazo[1,2-a]pyridin-3-amine], the “BAG3 FULL KD (µM) ± SD” value on BAG3 full-length is listed as “n.b”.

Source of the values: publication PMC11547576, “Identification of a New Promising BAG3 Modulator Featuring the Imidazopyridine Scaffold” (Molecules, 2024).
